From patent US7906507B2, “Oxadiazoanthracene compounds for the treatment of diabetes” (TransTech Pharma, Inc., priority 2008, dated 2011)

Target: T1, cloned human GLP-1 receptor (Homo sapiens, UniProt P43220)
T1 construct: expressed in transfected cells; host or cells: CHO or HEK-293 cells
Experiment: Functional cell-based assay: cAMP functional assay
Conditions: for Emax: 0.5 h, percentage relative to maximal GLP-1-induced cAMP accumulation, na = not active in the assay, read-out: % activation
Experimental: Following overnight incubation of cells, media was removed, and compounds (at concentrations ranging from 0.0001 to 100 μM) were added to monolayer cells in Iscove's modified dulbecco's medium (IMDM), 100 μM RO 20-1724 PDE inhibitor, 0.1% BSA, 2% DMSO in a final volume of 100 μL, and incubated for 30 min at 37° C. 95% O2, 5% CO2 in a humidified incubator. cAMP was quantitated using a homogenous time-resolved fluorescence detection system (cAMP dynamic, CIS bio International).

T1 sequence (P43220 24-463): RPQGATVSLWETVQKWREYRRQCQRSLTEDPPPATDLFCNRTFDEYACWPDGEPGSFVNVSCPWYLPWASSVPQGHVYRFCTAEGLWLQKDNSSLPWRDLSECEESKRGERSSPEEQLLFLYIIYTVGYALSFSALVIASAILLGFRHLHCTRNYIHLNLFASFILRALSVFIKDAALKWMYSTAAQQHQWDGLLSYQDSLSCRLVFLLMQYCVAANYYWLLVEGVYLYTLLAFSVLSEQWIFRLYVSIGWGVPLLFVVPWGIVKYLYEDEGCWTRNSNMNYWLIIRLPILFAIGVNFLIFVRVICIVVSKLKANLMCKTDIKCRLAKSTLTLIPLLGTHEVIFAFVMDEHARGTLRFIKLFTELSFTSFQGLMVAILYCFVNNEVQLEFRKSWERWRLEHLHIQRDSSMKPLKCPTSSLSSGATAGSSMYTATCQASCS

N#Cc1ccc(-c2ccc(C[C@H](NC(=O)[C@@H]3Cc4cc5c(cc4CN3C(=O)C3CCCCC3)OC(c3ccc(OCc4ccc(Cl)c(Cl)c4)cc3)C(=O)N5)C(=O)O)cc2)cc1 (stereo partly drawn) [Example 25, (S)-3-(4′-Cyano-biphenyl-4-yl)-2-({(S)-6-cyclohexanecarbonyl-3-[4-(3,4-dichloro-benzyloxy)-phenyl]-2-oxo-2,3,5,6,7,8-hexahydro-1H-4-oxa-1,6-diaza-anthracene-7-carbonyl}-amino)-propionic acid]
EC50: 594 nM | Emax: 12%

N#Cc1ccc(-c2ccc(C[C@H](NC(=O)[C@@H]3Cc4cc5c(cc4CN3C(=O)c3ccccn3)OC(c3ccc(OCc4ccc(Cl)c(Cl)c4)cc3)C(=O)N5)C(=O)O)cc2)cc1 (stereo partly drawn) [Example 50, (S)-3-(4′-Cyano-biphenyl-4-yl)-2-{[(S)-3-[4-(3,4-dichloro-benzyloxy)-phenyl]-2-oxo-6-(pyridine-2-carbonyl)-2,3,5,6,7,8-hexahydro-1H-4-oxa-1,6-diaza-anthracene-7-carbonyl]-amino}-propionic acid]
EC50: 1220 nM | Emax: 49%

COc1ccc(COc2ccc(C3Oc4cc5c(cc4NC3=O)C[C@@H](C(=O)N[C@@H](Cc3ccc(-c4ccc(C#N)cc4)cc3)C(=O)O)N(C(=O)c3ccccc3)C5)cc2)cc1C(F)(F)F (stereo partly drawn) [Example 62, (S)-2-({(S)-6-Benzoyl-3-[4-(4-methoxy-3-trifluoromethyl-benzyloxy)-phenyl]-2-oxo-2,3,5,6,7,8-hexahydro-1H-4-oxa-1,6-diaza-anthracene-7-carbonyl}-amino)-3-(4′-cyano-biphenyl-4-yl)-propionic acid]
EC50: 1000 nM | Emax: 15%

N#Cc1ccc(-c2ccc(C[C@H](NC(=O)[C@@H]3Cc4cc5c(cc4CN3Cc3ccccc3)OC(c3ccc(OCc4ccc(Cl)c(Cl)c4)cc3)C(=O)N5)C(=O)O)cc2)cc1 (stereo partly drawn) [Example 34, (S)-2-({(S)-6-Benzyl-3-[4-(3,4-dichloro-benzyloxy)-phenyl]-2-oxo-2,3,5,6,7,8-hexahydro-1H-4-oxa-1,6-diaza-anthracene-7-carbonyl}-amino)-3-(4′-cyano-biphenyl-4-yl)-propionic acid]
EC50: 160 nM | Emax: 31%

N#Cc1ccc(-c2ccc(C[C@H](NC(=O)[C@@H]3Cc4cc5c(cc4CN3C(=O)OCC3CC3)OC(c3ccc(OCc4ccc(Cl)c(Cl)c4)cc3)C(=O)N5)C(=O)O)cc2)cc1 (stereo partly drawn) [Example 18, (S)-7-[(S)-1-Carboxy-2-(4′-cyano-biphenyl-4-yl)-ethylcarbamoyl]-3-[4-(3,4-dichloro-benzyloxy)-phenyl]-2-oxo-1,2,3,5,7,8-hexahydro-4-oxa-1,6-diaza-anthracene-6-carboxylic acid cyclopropylmethyl ester]
EC50: 270 nM | Emax: 74.7%

N#Cc1ccc(-c2ccc(C[C@H](NC(=O)[C@@H]3Cc4cc5c(cc4CN3C(=O)OC3CCC(O)CC3)OC(c3ccc(OCc4ccc(Cl)c(Cl)c4)cc3)C(=O)N5)C(=O)O)cc2)cc1 (stereo partly drawn) [Example 1, (S)-7-[(S)-1-Carboxy-2-(4′-cyano-biphenyl-4-yl)-ethylcarbamoyl]-3-[4-(3,4-dichloro-benzyloxy)-phenyl]-2-oxo-1,2,3,5,7,8-hexahydro-4-oxa-1,6-diaza-anthracene-6-carboxylic acid 4-hydroxy-cyclohexyl ester]
EC50: 900 nM | Emax: 15%

N#Cc1ccc(-c2ccc(C[C@H](NC(=O)[C@@H]3Cc4cc5c(cc4CN3S(=O)(=O)c3cccc([N+](=O)[O-])c3)OC(c3ccc(OCc4ccc(Cl)c(Cl)c4)cc3)C(=O)N5)C(=O)O)cc2)cc1 (stereo partly drawn) [Example 52, (S)-3-(4′-Cyano-biphenyl-4-yl)-2-{[(S)-3-[4-(3,4-dichloro-benzyloxy)-phenyl]-6-(3-nitro-benzenesulfonyl)-2-oxo-2,3,5,6,7,8-hexahydro-1H-4-oxa-1,6-diaza-anthracene-7-carbonyl]-amino}-propionic acid]
EC50: 810 nM | Emax: 33%

Cc1cccc(C(=O)N2Cc3cc4c(cc3C[C@H]2C(=O)N[C@@H](Cc2ccc(-c3ccc(C#N)cc3)cc2)C(=O)O)NC(=O)C(c2ccc(OCc3ccc(Cl)c(Cl)c3)cc2)O4)c1 (stereo partly drawn) [Example 21, (S)-3-(4′-Cyano-biphenyl-4-yl)-2-{[(S)-3-[4-(3,4-dichloro-benzyloxy)-phenyl]-6-(3-methyl-benzoyl)-2-oxo-2,3,5,6,7,8-hexahydro-1H-4-oxa-1,6-diaza-anthracene-7-carbonyl]-amino}-propionic acid]
EC50: 399 nM | Emax: 70.3%

Cc1cc(C(=O)N2Cc3cc4c(cc3C[C@H]2C(=O)N[C@@H](Cc2ccc(-c3ccc(C#N)cc3)cc2)C(=O)O)NC(=O)C(c2ccc(OCc3ccc(Cl)c(Cl)c3)cc2)O4)no1 (stereo partly drawn) [Example 31, (S)-3-(4′-Cyano-biphenyl-4-yl)-2-{[(S)-3-[4-(3,4-dichloro-benzyloxy)-phenyl]-6-(5-methyl-isoxazole-3-carbonyl)-2-oxo-2,3,5,6,7,8-hexahydro-1H-4-oxa-1,6-diaza-anthracene-7-carbonyl]-amino}-propionic acid]
EC50: 1000 nM | Emax: 13%

N#Cc1ccc(-c2ccc(C[C@H](NC(=O)[C@@H]3Cc4cc5c(cc4CN3C(=O)c3c(F)cc(F)cc3F)OC(c3ccc(OCc4ccc(Cl)c(Cl)c4)cc3)C(=O)N5)C(=O)O)cc2)cc1 (stereo partly drawn) [Example 36, (S)-3-(4′-Cyano-biphenyl-4-yl)-2-{[(S)-3-[4-(3,4-dichloro-benzyloxy)-phenyl]-2-oxo-6-(2,4,6-trifluoro-benzoyl)-2,3,5,6,7,8-hexahydro-1H-4-oxa-1,6-diaza-anthracene-7-carbonyl]-amino}-propionic acid]
EC50: 660 nM | Emax: 13%

CC(C)(C)OC(=O)N1Cc2cc3c(cc2C[C@H]1C(=O)N[C@@H](Cc1ccc(-c2ccc(C#N)cc2)cc1)C(=O)O)NC(=O)C(c1ccc(OCc2cnc(Cl)c(Cl)c2)cc1)O3 (stereo partly drawn) [Example 63, (S)-7-[(S)-1-Carboxy-2-(4′-cyano-biphenyl-4-yl)-ethylcarbamoyl]-3-[4-(5,6-dichloro-pyridin-3-ylmethoxy)-phenyl]-2-oxo-1,2,3,5,7,8-hexahydro-4-oxa-1,6-diaza-anthracene-6-carboxylic acid tert-butyl ester]
EC50: 476 nM | Emax: 23%

CC(c1ccccc1)N1Cc2cc3c(cc2C[C@H]1C(=O)N[C@@H](Cc1ccc(-c2ccc(C#N)cc2)cc1)C(=O)O)N(C)C(=O)C(c1ccc(OCc2ccc(Cl)c(Cl)c2)cc1)O3 (stereo partly drawn) [Example 80, (S)-3-(4′-Cyano-biphenyl-4-yl)-2-{[(S)-3-[4-(3,4-dichloro-benzyloxy)-phenyl]-1-methyl-2-oxo-6-(1-phenyl-ethyl)-2,3,5,6,7,8-hexahydro-1H-4-oxa-1,6-diaza-anthracene-7-carbonyl]-amino}-propionic acid]
EC50: 66 nM | Emax: 16%

CN1C(=O)C(c2ccc(OCc3ccc(Cl)c(Cl)c3)cc2)Oc2cc3c(cc21)C[C@@H](C(=O)N[C@@H](Cc1ccc(-c2ccc(C#N)cc2)cc1)C(=O)O)N(C1CCC1)C3 (stereo partly drawn) [Example 76, (S)-3-(4′-Cyano-biphenyl-4-yl)-2-({(S)-6-cyclobutyl-3-[4-(3,4-dichloro-benzyloxy)-phenyl]-1-methyl-2-oxo-6(1-phenyl-cyclopentylmethyl)-2,3,5,6,7,8-hexahydro-1H-4-oxa-1,6-diaza-anthracene-7-carbonyl}-amino)-propionic acid]
EC50: 1140 nM | Emax: 8.12%

N#Cc1ccc(-c2ccc(C[C@H](NC(=O)[C@@H]3Cc4cc5c(cc4CN3C(=O)c3ccccc3)OC(c3ccc(OCc4ccc(Cl)cc4)cc3)C(=O)N5)C(=O)O)cc2)cc1 (stereo partly drawn) [Example 60, (S)-2-({(S)-6-Benzoyl-3-[4-(4-chloro-benzyloxy)-phenyl]-2-oxo-2,3,5,6,7,8-hexahydro-1H-4-oxa-1,6-diaza-anthracene-7-carbonyl}-amino)-3-(4′-cyano-biphenyl-4-yl)-propionic acid]
EC50: 1630 nM | Emax: 62%

CC[C@@H](c1ccccc1)N1Cc2cc3c(cc2C[C@H]1C(=O)N[C@@H](Cc1ccc(-c2ccc(OC)cc2)cc1)C(=O)O)N(C)C(=O)[C@@H](c1ccc(OCc2ccc(Cl)c(Cl)c2)cc1)O3 [Example 91, (S)-2-{[(3R,7S)-3-[4-(3,4-Dichloro-benzyloxy)-phenyl]-1-methyl-2-oxo-6-((S)-1-phenyl-propyl)-2,3,5,6,7,8-hexahydro-1H-4-oxa-1,6-diaza-anthracene-7-carbonyl]-amino}-3-(4′-methoxy-biphenyl-4-yl)-propionic acid]
EC50: 725 nM | Emax: 39%

N#Cc1ccc(-c2ccc(C[C@H](NC(=O)[C@@H]3Cc4cc5c(cc4CN3C(=O)c3cccs3)OC(c3ccc(OCc4cnc(Cl)c(Cl)c4)cc3)C(=O)N5)C(=O)O)cc2)cc1 (stereo partly drawn) [Example 66, (S)-3-(4′-Cyano-biphenyl-4-yl)-2-{[(S)-3-[4-(5,6-dichloro-pyridin-3-ylmethoxy)-phenyl]-2-oxo-6-(thiophene-2-carbonyl)-2,3,5,6,7,8-hexahydro-1H-4-oxa-1,6-diaza-anthracene-7-carbonyl]-amino}-propionic acid]
EC50: 950 nM | Emax: 21%

N#Cc1ccc(-c2ccc(C[C@H](NC(=O)[C@@H]3Cc4cc5c(cc4CN3C(=O)c3ccccc3)OC(c3ccc(OCc4cc(Cl)ccc4Cl)cc3)C(=O)N5)C(=O)O)cc2)cc1 (stereo partly drawn) [Example 58, (S)-2-({(S)-6-Benzoyl-3-[4-(2,5-dichloro-benzyloxy)-phenyl]-2-oxo-2,3,5,6,7,8-hexahydro-1H-4-oxa-1,6-diaza-anthracene-7-carbonyl}-amino)-3-(4′-cyano-biphenyl-4-yl)-propionic acid]
EC50: 565 nM | Emax: 45%

CN1C(=O)C(c2ccc(OCc3ccc(Cl)c(Cl)c3)cc2)Oc2cc3c(cc21)C[C@@H](C(=O)N[C@@H](Cc1ccc(-c2ccc(C#N)cc2)cc1)C(=O)O)N(C1CCCCC1)C3 (stereo partly drawn) [Example 75, (S)-3-(4′-Cyano-biphenyl-4-yl)-2-({(S)-6-cyclohexyl-3-[4-(3,4-dichloro-benzyloxy)-phenyl]-1-methyl-2-oxo-2,3,5,6,7,8-hexahydro-1H-4-oxa-1,6-diaza-anthracene-7-carbonyl}-amino)-propionic acid]
EC50: 244 nM | Emax: 20%
